“Also recorded” adds a separate entry of the source.
Experiments:
human HHAT [1] = molecular target: T1, human HHAT (Homo sapiens, UniProt Q5VTY9); test: Acyl-cLIP assay, dose-response inhibition of purified HHAT; format: biochemical; conditions: for HHAT inhibition (in words) / IC50: purified HHAT; for HHAT inhibition (in words): Acyl-cLIP; for IC50: real-time Acyl-cLIP, mean and 95 % CI, n=3
T1 construct: Full-length human HHAT (UniProt Q5VTY9); made in house
Method: We recently reported the acylation‐coupled lipophilic induction of polarization (Acyl‐cLIP) assay, a facile and universally applicable method to monitor enzymes processing lipid post‐translational modifications which uses the hydrophobicity increase on lipidation to drive a polarized fluorescence readout. ^[15] Dose‐response analysis of inhibition of purified HHAT was conducted using real‐time Acyl‐cLIP analysis (Table 1).
AMBIC (ammonium bicarbonate); CDI (1,1’-carbonyldiimidazole); DCM (dichloromethane); DDM (n-dodecyl-β-D-maltopyranoside); DIPEA (N,N-diisopropylethylamine); DMF (dimethylformamide); DTT (dithiothreitol); EDTA (ethylenediaminetetraacetic acid); FAM (5/6-carboxyfluorescein); HEPES (4-(2-hydroxyethyl)-1-piperazineethanesulfonic acid); HOBt (hydroxybenzotriazole); TBME (tert-butyl methyl ether); TBTA (tris[(1-benzyl-1H-1,2,3-triazol-4-yl)methyl]amine); TCEP (tris(2-carboxyethyl)phosphine hydrochloride); TEA (triethylamine); TFA (trifluoroacetic acid); THF (tetrahydrofuran); TRIS (tris(hydroxymethyl)aminomethane).
All reagents were purchased from commercial sources (Sigma-Aldrich, Fisher Scientific, Acros Organics, Novabiochem) and used without further purification.
Pal-CoA (Sigma Aldrich) was stored in NaOAc (0.1 M, pH 6.0) at -80 °C. RUSKI-201 (1) was synthesised as previously described.[1b] The peptide comprising of residues 24-43 of SHH (residues 1-10 of the mature protein) labelled with 5/6-carboxyfluorescein (SHH-FAM) was prepared as previously described.
Mixtures described as % represent v/v unless otherwise stated.
Biological and Biochemical Methods
Full-length human HHAT (UniProt Q5VTY9) C -terminally fused with a 1D4 epitope tag was expressed and purified via antibody purification with Rho -1D4 antibody (University of British Columbia) coupled to CNBr-activated sepharose beads (GE Healthcare) as previously described.[9] Purified HHAT 0.1-0.2 mg/mL in storage buffer (10 mM HEPES, 150 mM NaCl, 5% glycerol, 0.025% (w/v) DDM, 0.0006% (w/v) cholesterol-hemisuccinate, pH 7.5) was flash-frozen in liquid nitrogen and stored at -80 °C.
The Acylation-coupled Lipophilic Induction of Polarisation (Acyl -cLIP) was performed as previously described,[9] using Rho-1D4 antibody purified HHAT. Briefly, HHAT was diluted to 45 µg/mL in solubilisation buffer (20 mM HEPES, 350 mM NaCl, 1% (w/v) DDM, 5% glycerol, pH 7.3) added to SHH-FAM (2 µM) in reaction buffer (100 mM MES, 20 mM NaCl, 1 mM DTT, 1 mM TCEP, 0.1% (w/v) BSA, pH 6.5) in a 1:10 (v/v) ratio, respectively. The HHAT/SHH-FAM solution (12 µL/well) was dispensed into a black 384-well plate (Corning, 3575). The reaction was initiated by addition of Pal-CoA (7.5 µM) in reaction buffer (8 µL/well), and fluorescence anisotropy measured every 1 min for 1 h on an EnVision Xcite 2104 (PerkinElmer).
Measurement used a FITC FP D505fp mirror module, FITC FP 480 nm excitation filter (30 nm bandwidth), FITC FP P-pol 535 nm first emission filter (40 nm bandwidth), and FITC FP S-pol […]
(§1) 535 nm second emission filter (40 nm bandwidth), measurement height = 9.52 mm, 8 flashes/well, PMT gain = 319, and G-factor = 1.09. Fluorescence anisotropy was calculated […]
(§2) Where S is signal in the S-channel, P is signal in the P-channel, and G is the G-factor.
(§3) Assay data were evaluated using Microsoft Excel 2013 and GraphPad Prism 5.0. Initial rate constants were determined by linear regression, normalized to DMSO negative controls and background corrected to positive controls with solubilization buffer instead of HHAT. The half-maximal inhibitory concentration (IC 50) was calculated using a 4-parameter sigmoidal dose-response curve fit. Determination of the mechanism of inhibition of IMP -1575 relative to Pal-CoA was performed by fitting equation 2 for a mixed model of inhibition[10] using nonlinear […]
Where v is the observed rate of reaction, Vmax is the maximum rate, [I] is the inhibitor concentration, [S] is the substrate concentration, Km is the substrate concentration at ½ Vmax, […]

human HHAT [2] = molecular target: T1, human HHAT; test: Photocrosslinking to purified HHAT, CalFluor-647 CuAAC and in-gel fluorescence; format: binding; conditions: for crosslinking of probe to HHAT (in-gel fluorescence): probe 10 μM, purified HHAT, UV 365 nm 1 min
Text: These new insights led to design of photocrosslinking chemical probes 10 and 11 to investigate the small‐molecule binding site in HHAT (Figure 2 A). In probe 10 the secondary amine moiety was exchanged for a diazirine group, and the terminal alkyl chain replaced with an alkyne; probe 11 contains an additional carbon between the carbonyl and diazirine. The diazirine allows photoactivated chemical crosslinking to nearby residues in HHAT, with the alkyne allowing biorthogonal functionalization via copper(I)‐catalyzed azide‐alkyne cycloaddition (CuAAC, “click chemistry”) for subsequent analysis. […] The sidechains were synthesized and coupled to 2 (Scheme S4,5). […] Protein crosslinking was next investigated through CuAAC functionalization with a fluorophore and in‐gel fluorescence readout. As an integral membrane protein, HHAT presents substantial challenges in sample handling and cannot be precipitated to remove excess fluorophore which otherwise binds non‐specifically (data not shown). Fluorogenic azide CalFluor‐647 (Figure S8) ^[18] was therefore used to reduce background fluorescence from dye that had not reacted with alkyne probe. 10 or 11 (10 μM) were incubated with purified HHAT with or without UV irradiation (1 min). […]
Molecule for alignment. Compounds 1-9 (R)-enantiomers and IC50 values from the Acyl-cLIP assay were used as a Training Set . For the purpose of analysis of weakly active inhibitors, […]
Conformation Hunt was set to Normal, Alignment set to Normal, and Build Model set to Field
QSAR. Probes 10 and 11 were used as a Prediction Set .
Photoactivation Analysis by LC/MS
A solution of 10 or 11 (100 μM) in water was cooled on ice and irradiated using a custom-made UV light source (365 nm, 25 mW/cm2) for the indicated times. […]
All steps were performed in the dark in a cold room (4 °C), until specified otherwise. […] The gel was run until the loading dye had eluted from the gel (typically 55 min at 200 V) and the in-gel fluorescence […]
recorded (Excitation: 635 nm Emission: 669 nm) on a Typhoon FLA 9500 (GE Healthcare). […]

human HHAT [3] = molecular target: T1, human HHAT; test: Acyl-cLIP inhibition kinetics at varying Pal-CoA concentrations (mixed model of inhibition); format: biochemical
Method: IMP‐1575 (50–0.023 μM) was therefore analyzed for effects on HHAT kinetics at varying Pal‐CoA concentrations (50–0.19 μM, Figure 3 B,C).
as §1, §2, §3
Where v is the observed rate of reaction, Vmax is the maximum rate, [I] is the inhibitor concentration, [S] is the substrate concentration, Km is the substrate concentration at ½ Vmax, Ki is the affinity of the inhibitor for the free enzyme, and α is the ratio of the affinity of the inhibitor for the enzyme-substrate complex (Ki’) to Ki (typically noted as Ki’/Ki).
Density-Functional Theory Modelling
Density-functional theory (DFT) predictions were performed using Gaussian 16 [11] and Orca (version 4.0.1.2).[12] The compound 6 structure was initially created using Avogadro software (1.2.0) and geometry -optimised using an MMFF94s force field. Avogadro was also employed to explore conformers of the structure using a “systematic rotor search”. DFT geometry optimisations were initially carried out on the MMFF94s optimised structures using either the 6-31G basis set (for the B3LYP and M062X functionals) or the def2/SVP basis set (for the CAM-B3LYP functional). Structures were then optimised with a higher -level basis set (6-311++G(d,p), for the B3LYP and M062X functional, and def2/TZVP for the CAM-B3LYP functional). […]

[4] = Photoactivation analysis by LC/MS under UV irradiation (365 nm); format: physicochemical; conditions: 100 μM in water on ice
HHAT = molecular target: HHAT; set-up: method as in PMID 23416332; conditions: reported as noncompetitive with Pal-CoA; cited from earlier work

T1 sequence (Q5VTY9 whole entry): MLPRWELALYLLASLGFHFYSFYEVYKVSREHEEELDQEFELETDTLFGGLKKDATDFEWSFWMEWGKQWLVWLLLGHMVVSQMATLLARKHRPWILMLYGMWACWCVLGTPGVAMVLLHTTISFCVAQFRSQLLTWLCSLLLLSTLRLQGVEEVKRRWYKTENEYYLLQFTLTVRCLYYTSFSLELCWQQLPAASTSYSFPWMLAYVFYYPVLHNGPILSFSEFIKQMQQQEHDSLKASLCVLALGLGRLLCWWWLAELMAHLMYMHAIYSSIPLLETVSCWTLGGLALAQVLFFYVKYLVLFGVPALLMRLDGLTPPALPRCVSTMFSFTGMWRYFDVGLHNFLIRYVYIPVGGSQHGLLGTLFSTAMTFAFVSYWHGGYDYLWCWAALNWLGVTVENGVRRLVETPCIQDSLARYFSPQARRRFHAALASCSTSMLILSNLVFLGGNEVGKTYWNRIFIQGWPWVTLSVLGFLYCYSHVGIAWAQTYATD

Row | SMILES | HHAT inhibition (in words) (human HHAT [1]) | IC50 (human HHAT [1]) [µM] | other results
1 | Cc1cccc(C2c3ccsc3CCN2C(=O)CNCC(C)C)n1 (single isomer, unassigned; (-)) [(-)-6] | no HHAT inhibition | > 50 | 
2 | Cc1cccc([C@H]2c3ccsc3CCN2C(=O)CNCC(C)C)n1 [(+)-6] |  | 0.75 | competition of probe 11 crosslinking to HHAT (human HHAT [2]; 40-fold excess IMP-1575 (400 μM) vs probe 11 (10 μM)): reduced crosslinking to near background levels; potency compared to (+/-)-6 (human HHAT [1]; from Acyl-cLIP IC50): two‐fold increased potency; Ki (human HHAT [3]; competitive with respect to Pal-CoA, IMP-1575 50-0.023 μM, Pal-CoA 50-0.19 μM, mixed model fit): 0.038 µM; mode of inhibition with respect to Pal-CoA (human HHAT [3]; mixed model analysis): competitive; α (mixed model equation for inhibition) (human HHAT [3]; ratio Ki'/Ki, with respect to Pal-CoA): 470
3 | Cc1cccc(C2NCCc3sccc32)n1 (stereo not shown) [Compound 2] | no inhibition | > 50 | 
4 | CC(=O)N1CCc2sccc2C1c1cccc(C)n1 (stereo not shown) [Compound 3] |  | 13 | 
5 | CC[C@H](C)CNCC(=O)N1CCc2sccc2C1c1cccc(C)n1 (stereo partly shown) [Compound 4] |  | 3.7 | fold reduced potency compared to 1 (human HHAT [1]; from Acyl-cLIP IC50): ≈ 2 fold
6 | Cc1cccc(C2c3ccsc3CCN2C(=O)CNCCC(C)C)n1 (stereo not shown) [Compound 5] |  | 5.8 | 
7 | Cc1cccc(C2c3ccsc3CCN2C(=O)CNCC(C)C)n1 (stereo not shown) [Compound 6] |  | 1.3 | 
8 | Cc1cccc(C2c3ccsc3CCN2C(=O)CN(C)CC(C)C)n1 (stereo not shown) [Compound 7] | substantially reduced activity | ~25 | 
9 | Cc1cccc(C2c3ccsc3CCN2C(=O)CN2CCCC(C)C2)n1 (stereo not shown) [Compound 8] | substantially reduced activity | ~50 | 
10 | Cc1cccc(C2c3ccsc3CCN2C(=O)NCCC(C)C)n1 (stereo not shown) [Compound 9] | substantially reduced activity | ~50 | 
11 | C#CCCC1(CC(=O)N2CCc3sccc3C2c2cccc(C)n2)N=N1 (stereo not shown) [Compound 10] |  | 16 | crosslinking of probe to HHAT (in-gel fluorescence) (human HHAT [2]): minimal crosslinking; also recorded: minimal labelling; activation half-life [4]: 3.3 min
12 | C#CCCC1(CCC(=O)N2CCc3sccc3C2c2cccc(C)n2)N=N1 (stereo not shown) [Compound 11] |  | 2.4 | crosslinking of probe to HHAT (in-gel fluorescence) (human HHAT [2]): crosslinking of probe 11 to HHAT promoted by UV irradiation; also recorded: enhanced labelling with UV irradiation; activation half-life [4]: 0.533 min
13 | CCC(C)CNCC(=O)N1CCc2sccc2C1COc1cccc(C)c1 (stereo not shown) [RUSKI-43] |  |  | Ki (HHAT): 6.9 µM

Source: paper PMC8252026, “Photochemical Probe Identification of a Small‐Molecule Inhibitor Binding Site in Hedgehog Acyltransferase (HHAT)” (Angewandte Chemie (International Ed. in English), 2021)
